System: CUL4A-DDB1-DCAF10
Assay: In vitro ubiquitination of Lyn-GFP variants by CUL4A-DDB1-DCAF10
Format: biochemical, human
Conditions: for Increase of in vitro ubiquitination under NMT1/2 siRNA: WT E3 complex, IP from NMT1/2 siRNA vs control DLD-1 cells
Text: Lyn^WT-GFP was ubiquitinated by the WT E3 complex in both conditions; however, unlike in vitro ubiquitination with endogenous Lyn (Fig. 5c, d), ubiquitination increased ~6-fold under NMT1/2 siRNA conditions. This is consistent with DCAF10 being limiting and overexpressed Lyn-GFP, accumulating an acetylated fraction available for DCAF10 in vitro. Then, we performed IPs for all Nt variants under NMT1/2 siRNA conditions (Fig. 6d, h–i). […] In vitro ubiquitination assays using untreated cell lysates led to similar results (Supplementary Fig. 7h, i).
Reactions contained E1, UBCH5B (E2), ubiquitin, Mg-ATP in ligation buffer and were incubated with bead-bound substrates, followed by washing and immunoblot detection of ubiquitinated species (anti-ubiquitin), with loading controls (anti-Lyn, -Fyn, -Src or -GFP) (n = 3 independent enzymatic assays). Complete reagent lists, complex preparation, substrate IP conditions, wash buffers, and gel/blot parameters are provided in the Supplementary Methods and Tables.
357 (v/v) glycerol, 2 mM TCEP, supplemented with Protease Inhibitor Cocktail), and lysed
358 by sonication. Lysates were cleared by centrifugation at 28,000 rpm for 45 min at 4 °C
359 using a JA-30.50 rotor (Beckman Coulter, Brea, CA, USA). The cleared and filtered (0.8
360 µm) lysate was applied to 1 mL of Strep-Tactin®XT 4Flow® resin (iba), pre-equilibrated
361 once with wash buffer (100 mM Tris-HCl pH 8.0, 150 mM NaCl, 1 mM EDTA) and lysis
362 buffer. The lysate was incubated on a tube roller for 16 h at 4 °C. After incubation, beads
363 were washed with 50 mL of lysis buffer. Bound proteins were eluted with 10 mL of lysis
364 buffer supplemented with 50 mM biotin, after 15 min incubation on a tube roller at 4 °C.
366 Superdex 200 10/300 or 16/60 SEC column (GE Healthcare, Chicago, IL, USA),
367 preequilibrated in SEC buffer (250 mM Tris pH 7.5, 250 mM NaCl, 10% (v/v) glycerol,
370 Purified proteins were visualized during and after the purification by SDS-gels containing
371 TCE (2,2,2-trichloroethanol)62. The identity of proteins was confirmed by WB and MS.
373 In vitro ubiquitination assays
374 The in vitro ubiquitination assays were performed as previously described8. In brief,
375 E1 (50 nM), UBCH5B (250 nM), ubiquitin (1.5 µg), Mg-ATP (3 mM), ligation buffer,
376 and water were pre-mixed. The premix was divided, and either CUL4A-RBX1-
378 RBX1DDB1 (-DCAF10) (250 nM each) was added. 15 μL of each premix were incubated
379 with substrates (endogenous Lyn or Lyn-GFP constructs) bound to beads for 1 h at 30°C
380 with shaking. Samples were then washed four to five times with a buffer containing 50 […]
382 EDTA, and loaded on a gradient gel (4–15%). Ubiquitination of substrates was assessed
383 by WB using an anti-ubiquitin antibody. Equal substrate loading was evaluated by anti- […]

Lyn^WT-GFP: doxycycline-inducible C-terminally GFP-fused Lyn in DLD-1 Lyn KO cells
In vitro ubiquitination (in words) (Lyn-GFP variants, NMT1/2 siRNA): robustly ubiquitinated by the WT E3 complex
Increase of in vitro ubiquitination under NMT1/2 siRNA: ~ 6 fold
Increase of in vitro ubiquitination under NMT1/2 siRNA (listed as LynWT–GFP): > 5 fold
